In PMC6529454, “Development of human cGAS-specific small-molecule inhibitors for repression of dsDNA-triggered interferon expression” (Nature Communications, 2019):

Columns and labels:
[1] = test system: 45-bp dsDNA; assay: dsDNA intercalation fluorescence polarization assay (acridine orange); format: binding; settings: for Polarization: compound at 30 µM
[2] = biological target: T1, h-cGAS (Homo sapiens, UniProt Q8N884); assay: RapidFire mass spectrometry (RF-MS) cGAS activity assay, h-cGAS; settings: h-cGAS IC50, RF-MS; freshly sourced vendor powder
[3] = biological target: m-cGAS (Mus musculus, UniProt Q8C6L5); assay: RapidFire mass spectrometry (RF-MS) cGAS activity assay, m-cGAS; settings: m-cGAS IC50, RF-MS; freshly sourced vendor powder
[4] = biological target: T1, h-cGAS; assay: ATP-coupled luminescence (LUM, Kinase-Glo) high-throughput assay, h-cGAS; format: biochemical; parameters: His6-SUMO (N, cleaved yes); made in house; host or cells: E. coli BL21-CodonPlus(DE3)-RIL; settings: library stock, ten half-dilutions from 25 µM; read-out: h-cGAS IC50 (LUM)
[5] = test system: human THP1 cells; parameters: method as in PMID 25821216; settings: cited from earlier work

T1 sequence (Q8N884 whole entry): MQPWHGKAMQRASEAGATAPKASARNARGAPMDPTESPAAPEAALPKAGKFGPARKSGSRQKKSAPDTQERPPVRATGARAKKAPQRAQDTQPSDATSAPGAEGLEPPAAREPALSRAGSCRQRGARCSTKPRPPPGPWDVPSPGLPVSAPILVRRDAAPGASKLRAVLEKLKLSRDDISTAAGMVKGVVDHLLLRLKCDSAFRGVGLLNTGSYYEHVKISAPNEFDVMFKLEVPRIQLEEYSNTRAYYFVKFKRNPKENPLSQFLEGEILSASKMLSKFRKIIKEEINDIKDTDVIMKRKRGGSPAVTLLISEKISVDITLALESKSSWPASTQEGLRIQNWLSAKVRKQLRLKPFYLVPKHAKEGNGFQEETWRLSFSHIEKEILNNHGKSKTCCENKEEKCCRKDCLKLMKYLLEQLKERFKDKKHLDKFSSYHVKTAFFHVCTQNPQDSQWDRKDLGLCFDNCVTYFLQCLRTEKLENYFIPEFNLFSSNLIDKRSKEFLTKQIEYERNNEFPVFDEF
Sequence of m-cGAS (Q8C6L5 whole entry): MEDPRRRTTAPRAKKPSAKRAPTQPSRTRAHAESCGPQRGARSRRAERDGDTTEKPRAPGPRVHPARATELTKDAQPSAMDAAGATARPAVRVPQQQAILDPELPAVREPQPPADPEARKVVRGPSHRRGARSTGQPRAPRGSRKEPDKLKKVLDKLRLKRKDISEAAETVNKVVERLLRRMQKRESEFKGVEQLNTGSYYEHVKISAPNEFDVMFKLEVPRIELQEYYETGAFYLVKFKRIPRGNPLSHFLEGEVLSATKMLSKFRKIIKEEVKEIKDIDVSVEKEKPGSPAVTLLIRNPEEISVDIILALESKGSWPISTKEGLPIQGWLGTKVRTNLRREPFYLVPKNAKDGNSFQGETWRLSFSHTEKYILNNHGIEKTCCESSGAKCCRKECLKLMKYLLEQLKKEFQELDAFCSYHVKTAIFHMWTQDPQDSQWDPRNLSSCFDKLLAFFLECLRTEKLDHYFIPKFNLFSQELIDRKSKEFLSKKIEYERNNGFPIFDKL

In the case of `N=C1/C(=C/c2ccc(O)cc2)C(=O)N=C2SC(c3ccccc3Cl)=NN12` [RU-0169289_AA-001], the “% Intercalation at 30 µM” value [1] is reported as -14.25%, the Polarization [1] is reported as 271 mP and the IC50 [2] is reported as 5.18 µM. It also gave an IC50 [3] of 14.9 µM and an IC50 [4] of 9.95 µM.

With `COCc1nn2c(=O)cc(Cc3ccccc3)[nH]c2c1-c1ccccc1` [RU-0171678_AA-001] the “% Intercalation at 30 µM” value [1] was -2.74%, the Polarization [1] was 248 mP and the IC50 [2] was over 50 µM. The IC50 [3] was over 50 µM and the IC50 [4] was 1.37 µM.

With `CSC(=S)N/N=C(\c1ccccc1)c1ccccn1` [RU-0172034_AA-001] the “% Intercalation at 30 µM” value [1] was -10.03%, the Polarization [1] was 263 mP and the IC50 [2] was 7.02 µM. The IC50 [3] was over 50 µM and the IC50 [4] was 4.69 µM.

For `Oc1ccccc1C1=NNC2(CC3CC2C2CCCC32)S1` (stereo not drawn) [RU-0182153_AA-001], the “% Intercalation at 30 µM” value [1] was -11.48%, the Polarization [1] was 266 mP and the IC50 [2] was 33.1 µM. The IC50 [3] was over 50 µM and the IC50 [4] was 4.8 µM.

For `N#CC(C(=O)/C=C/c1nccs1)C(=O)Nc1cccc(Cl)c1Cl` (stereo not drawn) [RU-0183726_AA-001], the “% Intercalation at 30 µM” value [1] was -6.77%, the Polarization [1] was 256 mP and the IC50 [2] was 4.63 µM. It also gave an IC50 [3] of 17.3 µM and an IC50 [4] of 7.46 µM.

For `Cc1ccc2c(=O)c3ccccc3n(CCCN)c2c1C` [RU-0187094_AT-001], the “% Intercalation at 30 µM” value [1] was 45.76%, the Polarization [1] was 148 mP and the IC50 [2] was 1.61 µM. The IC50 [3] was 10.3 µM and the IC50 [4] was 2.59 µM.

For `NC(=O)n1c(O)c(C(=O)c2cccs2)c2cc(Cl)ccc21` [RU-0187170_AA-001], the “% Intercalation at 30 µM” value [1] was -15.37%, the Polarization [1] was 274 mP and the IC50 [2] was 1.31 µM. The IC50 [3] was 21.5 µM and the IC50 [4] was 1.38 µM.

In the case of `O=C(Nc1ncccc1O)c1nc(-c2ccccc2)n2c1CCCCC2` [RU-0208404_AA-001], the “% Intercalation at 30 µM” value [1] is reported as -4.67%, the Polarization [1] is reported as 252 mP and the IC50 [2] is reported as 13.7 µM. For the same compound, the IC50 [3] was over 50 µM and the IC50 [4] was 2.48 µM.

In the case of `Cc1ccc(-n2[nH]c(C(=O)Nc3ccnc4ccnn34)cc2=O)cc1` [RU-0208705_AA-001], the “% Intercalation at 30 µM” value [1] is reported as -20.07%, the Polarization [1] is reported as 283 mP and the IC50 [2] is reported as 7.82 µM. For the same compound, the IC50 [3] was over 50 µM and the IC50 [4] was 2.72 µM.

In the case of `COC(=O)C1=NN2C(=NS(=O)(=O)c3ccccc32)N1` [RU-0209189_AA-001], the “% Intercalation at 30 µM” value [1] is reported as -6.61%, the Polarization [1] is reported as 256 mP and the IC50 [2] is reported as 3.04 µM. It also gave an IC50 [3] of 3.93 µM and an IC50 [4] of 6.64 µM.

For `CCN(CC)CCCC(C)Nc1c2ccc(Cl)cc2nc2ccc(OC)cc12` (stereo not drawn) [quinacrine], the IC50 [5] is listed as 3.7 µM.
